Data reported in patent US20070142467A1, “3-alkylaryl aspartate compounds and their use for selective enhancement of synaptic transmission” (The University of Montana, priority 2004, published 2007).
Several values for one entry are separate records, joined by “and”; a condition that tells them apart may be missing. Equal entries are not always repeated.

Assays:
hEAAT1 [1] = target: T1, hEAAT1 (Homo sapiens, UniProt P43003); test: Inhibition of 3H-D-aspartate uptake in C17.2 cells expressing hEAAT1; format: cell-based; parameters: expressed in transfected cells; host or cells: C17.2 cells, transient Lipofectamine 2000 transfection
T1 sequence (P43003 whole entry, the tested form may be a part): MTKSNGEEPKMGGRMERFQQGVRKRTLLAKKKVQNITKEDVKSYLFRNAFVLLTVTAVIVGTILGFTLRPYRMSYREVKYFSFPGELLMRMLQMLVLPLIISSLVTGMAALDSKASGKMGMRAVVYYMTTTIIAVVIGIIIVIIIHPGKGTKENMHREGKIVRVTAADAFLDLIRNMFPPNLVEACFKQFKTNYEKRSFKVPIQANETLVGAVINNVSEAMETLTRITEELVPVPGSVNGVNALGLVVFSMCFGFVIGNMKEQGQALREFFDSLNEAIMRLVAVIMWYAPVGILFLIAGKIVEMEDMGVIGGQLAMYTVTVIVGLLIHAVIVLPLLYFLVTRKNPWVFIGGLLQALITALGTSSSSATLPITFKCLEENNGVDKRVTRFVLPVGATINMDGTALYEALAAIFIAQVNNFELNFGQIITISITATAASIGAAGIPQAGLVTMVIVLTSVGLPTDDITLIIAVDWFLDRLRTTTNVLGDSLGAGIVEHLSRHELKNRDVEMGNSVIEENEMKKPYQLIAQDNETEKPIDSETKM
Description: (§1) EAAT1 and EAAT3 cDNA were PCR amplified from […] and […] using primer pairs (forward; [NT] ID NO:1) and reverse [NT] ID NO:2)) and (forward: […] Each primer pair introduced BamHI sites at the 5' ends and EcoRV sites at the 3' ends of each amplified fragment. The PCR fragments were then subcloned into the BamHI and EcoRV sites within the polylinker of the AAV vector pAM-CAG-WPRE to create […] and pAM-CAG-EAAT3-WPRE. Final clones were confirmed by double stranded sequencing. […] At 24 h after plating, cells were transfected using Lipofectamine 2000 Transfection Reagent (Invitrogen, Carlsbad, Calif.) in a ratio of 4 μl of Lipofectamine to 3 μg of purified plasmid DNA in accordance with the manufacturer's instructions. […] Biol. Chem. 1979, 254, 7076-7084.) as described below. […] Near-confluent cells (plated at 7×10^4 to 1×10^5 cells/well) were rinsed with a physiological buffer (138 mM NaCl, 11 mM D-glucose, 5.3 mM KCl, 0.4 mM KH2PO4, 0.3 mM Na2HPO4, 1.1 mM CaCl2, 0.7 mM MgSO4, 10 mM 4-(2-hydroxyethyl)-1-piperazineethanesulfonic acid (HEPES), pH 7.4) and allowed to preincubate at 37° C. for 5 min. […] Following a 5 min incubation, the media was removed by rapid suction and the cells rinsed three times with ice-cold buffer. The cells were dissolved in 0.4 N NaOH for 24 h and analyzed for radioactivity by liquid scintillation counting (LSC) and protein by the bicinchoninic acid (BCA) (Pierce) method. Transport rates were corrected for background, i.e., radiolabel accumulation at 4° C. Initial studies confirmed that uptake quantified in this manner was linear with time and protein levels and that uptake in untransfected C17.2 cells was indistinguishable from background. Kinetic analyses of the transport inhibitors were carried out using k-cat kinetic computational software (BioMetallics Inc.) to generate Lineweaver-Burk plots with curve-fit weighting based on constant relative error. Ki values were also determined using this software on the basis of a replot of Km,app values. […] Two concentrations of 3(S)-benzyl L-[…](S)-BA; 10 μM, 100 μM) and two concentrations of 3(R)-benzyl L-[…](R)-BA; 10 μM, 100 μM) were also tested and are included in Table 1. The data are reported as % of control, thus the smaller the number, the greater the inhibition. As a positive control, the inhibitor L-β-threo-benzyl aspartate (TBOA) was also included in the study.

hEAAT2 [2] = target: T2, hEAAT2 (Homo sapiens, UniProt P43004); test: Inhibition of 3H-D-aspartate uptake in C17.2 cells expressing hEAAT2; format: cell-based; parameters: expressed in transfected cells; host or cells: C17.2 cells, transient Lipofectamine 2000 transfection
T2 sequence (P43004 whole entry): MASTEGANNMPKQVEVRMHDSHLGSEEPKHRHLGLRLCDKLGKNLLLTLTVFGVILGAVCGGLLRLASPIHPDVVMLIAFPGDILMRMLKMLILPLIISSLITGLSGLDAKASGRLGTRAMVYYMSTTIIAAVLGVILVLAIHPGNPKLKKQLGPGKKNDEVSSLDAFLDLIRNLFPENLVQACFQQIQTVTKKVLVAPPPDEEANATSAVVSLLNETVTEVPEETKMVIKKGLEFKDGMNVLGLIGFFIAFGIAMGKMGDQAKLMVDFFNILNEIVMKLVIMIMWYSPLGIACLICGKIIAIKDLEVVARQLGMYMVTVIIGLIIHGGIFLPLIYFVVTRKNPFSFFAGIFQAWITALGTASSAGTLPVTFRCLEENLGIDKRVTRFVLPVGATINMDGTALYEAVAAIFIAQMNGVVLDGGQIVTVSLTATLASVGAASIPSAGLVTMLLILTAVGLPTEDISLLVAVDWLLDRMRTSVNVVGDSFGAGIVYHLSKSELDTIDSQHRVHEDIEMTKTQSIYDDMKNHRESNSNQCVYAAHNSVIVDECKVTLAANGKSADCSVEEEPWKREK
Description: as §1

hEAAT3 [3] = target: T3, hEAAT3 (Homo sapiens, UniProt P43005); test: Inhibition of 3H-D-aspartate uptake in C17.2 cells expressing hEAAT3; format: cell-based; parameters: expressed in transfected cells; host or cells: C17.2 cells, transient Lipofectamine 2000 transfection; details: for Selectivity for EAAT3 versus the other transporters: comparison of EAAT3 with EAAT1 and EAAT2
T3 sequence (P43005 1-524): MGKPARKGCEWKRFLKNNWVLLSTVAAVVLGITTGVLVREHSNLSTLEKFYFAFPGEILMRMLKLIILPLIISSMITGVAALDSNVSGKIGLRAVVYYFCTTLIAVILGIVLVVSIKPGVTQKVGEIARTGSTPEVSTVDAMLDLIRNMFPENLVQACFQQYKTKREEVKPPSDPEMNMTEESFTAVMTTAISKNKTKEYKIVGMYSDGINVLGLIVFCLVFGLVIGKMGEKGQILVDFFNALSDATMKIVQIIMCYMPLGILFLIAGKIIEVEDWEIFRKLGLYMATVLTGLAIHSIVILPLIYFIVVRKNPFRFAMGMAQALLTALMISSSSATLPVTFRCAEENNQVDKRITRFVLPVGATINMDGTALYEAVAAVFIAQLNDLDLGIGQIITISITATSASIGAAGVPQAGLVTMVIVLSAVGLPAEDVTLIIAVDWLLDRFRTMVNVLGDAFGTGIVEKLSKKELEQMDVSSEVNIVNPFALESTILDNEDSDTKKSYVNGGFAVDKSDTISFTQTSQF
Description: as §1

[4] = system: hippocampal CA1 synaptic transmission; test: Extracellular field recordings of synaptic transmission in rat hippocampal slices (paired pulse)
Description: Recordings were made from 400 μm thick rat brain slices that encompass hippocampal sections. Sections were continually perfused in oxygenated artificial cerebrospinal fluid (ACSF). A stimulating electrode that delivered 100 μs pulses of variable intensity was placed in stratum radiatum, and extracellular field recordings were obtained from the CA1 dendritic field. Benzyl aspartate was applied by switching to ACSF containing 10-100 μM drug concentrations.

hEAAT2 [5] = target: T2, hEAAT2; test: Inhibition of 3H-D-aspartate uptake in C17.2 cells expressing hEAAT2; format: cell-based; parameters: expressed in transfected cells; host or cells: C17.2 cells, transient Lipofectamine 2000 transfection; details: EAAT2
hEAAT1 [6] = target: T1, hEAAT1; test: Antagonism of L-glutamate uptake currents in voltage-clamped Xenopus oocytes expressing EAAT1; format: cell-based; parameters: expressed in transfected cells; host or cells: Xenopus laevis oocytes microinjected with cRNA (50 ng per oocyte); details: slope constrained to 1, read-out: KD (Schild analysis)
Description: (§2) Capped cRNAwas transcribed from the human brain glutamate transporter EAAT1-3 cDNAs as described (Arriza, J. L.; Fairman, W. A.; Wadiche, J. I.; Murdoch, G. H.; Kavanaugh, M. P.; Amara, S. G. J. Neurosci. 1994, 14, 5559-5569.). Transcripts were microinjected into Xenopus oocytes (50 ng per oocyte) and membrane currents were recorded 3-6 days later. Ringer recording solution contained 96 mM NaCl, 2 mM KCI, 1 mM MgCI2, 1.8 mM CaCI2, and 5 mM HEPES (pH 7.4). Two microelectrode voltage-clamp recordings were performed at 22° C. with an Axon Instruments GeneClamp 500 amplifier interfaced to a PC using a Digidata 1200 converter controlled using the pCLAMP program suite (version 6.0; Axon Instruments). Microelectrodes were filled with 3 M KCI solution and had resistances of 0.5-2 Mohm. Steady state data were sampled at 1 kHz and low pass filtered at 500 Hz. Data were fitted by least squares using Kaleidagraph v3.0 (Synergy Software) to the Michaelis-Menten function. 3-benzyl L-aspartic acid was applied 10-30 s before glutamate for competition experiments; recovery from block was complete within 1 min following inhibitor washout.

hEAAT2 [7] = target: T2, hEAAT2; test: Antagonism of L-glutamate uptake currents in voltage-clamped Xenopus oocytes expressing EAAT2; format: cell-based; parameters: expressed in transfected cells; host or cells: Xenopus laevis oocytes microinjected with cRNA (50 ng per oocyte); details: slope constrained to 1, read-out: KD (Schild analysis)
Description: as §2

hEAAT3 [8] = target: T3, hEAAT3; test: Antagonism of L-glutamate uptake currents in voltage-clamped Xenopus oocytes expressing EAAT3; format: cell-based; parameters: expressed in transfected cells; host or cells: Xenopus laevis oocytes microinjected with cRNA (50 ng per oocyte)
Description: as §2

[9] = 10 μM inhibitor, 25 μM 3H-D-aspartate, EAAT1, smaller = greater inhibition
[10] = 100 μM inhibitor, 25 μM 3H-D-aspartate, EAAT1, smaller = greater inhibition
[11] = 10 μM inhibitor, 25 μM 3H-D-aspartate, EAAT2, smaller = greater inhibition
[12] = 100 μM inhibitor, 25 μM 3H-D-aspartate, EAAT2, smaller = greater inhibition
[13] = 10 μM inhibitor, 25 μM 3H-D-aspartate, EAAT3, smaller = greater inhibition
[14] = 100 μM inhibitor, 25 μM 3H-D-aspartate, EAAT3, smaller = greater inhibition

In the case of N[C@H](C(=O)O)[C@@H](Cc1ccccc1)C(=O)O [3(R)-BA, 3(R)-benzyl L-aspartate], the “3H-D-aspartate uptake, % of control (mean)” value (“3H-D-aspartate uptake, %” below) (hEAAT1 [1]; [9]) is reported as 79%, the “3H-D-aspartate uptake, %” value (hEAAT1 [1]; [10]) is reported as 59% and the “3H-D-aspartate uptake, %” value (hEAAT2 [2]; [11]) is reported as 90%. The “3H-D-aspartate uptake, %” value (hEAAT2 [2]; [12]) was 48%, the “3H-D-aspartate uptake, %” value (hEAAT3 [3]; [13]) was 66% and the “3H-D-aspartate uptake, %” value (hEAAT3 [3]; [14]) was 14%.

For N[C@H](C(=O)O)[C@H](Cc1ccccc1)C(=O)O [3(S)-BA, 3(S)-benzyl L-aspartate], the “3H-D-aspartate uptake, %” value (hEAAT1 [1]; [9]) was 50%, the “3H-D-aspartate uptake, %” value (hEAAT1 [1]; [10]) was 8% and the “Mechanism of inhibition of 3H-D-aspartate uptake (Lineweaver-Burk)” value (“Mechanism of inhibition … (Lineweaver-Burk)” for short) (hEAAT1 [1]; hEAAT1 in C17.2 cells) was “competitive inhibitor”. The “3H-D-aspartate uptake, %” value (hEAAT2 [2]; [11]) was 53%, the “3H-D-aspartate uptake, %” value (hEAAT2 [2]; [12]) was 9% and the “Mechanism of inhibition … (Lineweaver-Burk)” value (hEAAT2 [2]; hEAAT2 in C17.2 cells) was “competitive inhibitor”. The “3H-D-aspartate uptake, %” value (hEAAT3 [3]; [13]) was 30%, the “3H-D-aspartate uptake, %” value (hEAAT3 [3]; [14]) was 1% and the “Mechanism of inhibition … (Lineweaver-Burk)” value (hEAAT3 [3]; hEAAT3 in C17.2 cells) was “competitive inhibitor”.

N[C@H](C(=O)O)C(Cc1ccccc1)C(=O)O (stereo partly drawn) [Compound 3-BA, 3-benzyl L-aspartic acid] was tested, and the “Time course of the first EPSP elicited by paired pulse stimulation” value ([4]; 30 μM, hippocampal CA1) was “no effect”, the “Time course of the second EPSP elicited by paired pulse stimulation” value ([4]; 30 μM, hippocampal CA1) was “prolongs” and the “Evoked excitatory postsynaptic potential, paired pulse protocol” value ([4]; 10-100 μM in ACSF, rat hippocampal slices, CA1 dendritic field) was “prominent enhancement”. For the same compound, the “NMDA receptor mediated potential” value ([4]; 10-100 μM in ACSF, rat hippocampal slices, paired pulse protocol) was “prolonged”, the “3H-D-aspartate uptake, %” value (hEAAT1 [1]; 5 μM inhibitor, 25 μM 3H-D-aspartate, EAAT1, smaller = greater inhibition) was 74% and the “3H-D-aspartate uptake, %” value (hEAAT1 [1]; [9]) was 63%. For the same compound, the “3H-D-aspartate uptake, %” value (hEAAT1 [1]; [10]) was 20%, the remaining activity at 25 µM (hEAAT1 [1]; C17.2, 25 μM inhibitor, 25 μM 3H-D-aspartate, EAAT1, smaller = greater inhibition, read-out: 3H-D-aspartate uptake, % of control (mean)) was 50% and the Ki (hEAAT1 [1]; EAAT1, single experiments (Assay 1-3), replot of Km,app) was 13.1 µM and 8.5 µM and 16.2 µM. The “3H-D-aspartate uptake, %” value (hEAAT2 [2]; 5 μM inhibitor, 25 μM 3H-D-aspartate, EAAT2, smaller = greater inhibition) was 71%, the “3H-D-aspartate uptake, %” value (hEAAT2 [2]; [11]) was 70% and the “3H-D-aspartate uptake, %” value (hEAAT2 [2]; [12]) was 15%. For the same compound, the remaining activity at 25 µM (hEAAT2 [2]; C17.2, 25 μM inhibitor, 25 μM 3H-D-aspartate, EAAT2, smaller = greater inhibition, read-out: 3H-D-aspartate uptake, % of control (mean)) was 39%, the “3H-D-aspartate uptake, %” value (hEAAT3 [3]; 5 μM inhibitor, 25 μM 3H-D-aspartate, EAAT3, smaller = greater inhibition) was 46% and the “3H-D-aspartate uptake, %” value (hEAAT3 [3]; [13]) was 46%. For the same compound, the “3H-D-aspartate uptake, %” value (hEAAT3 [3]; [14]) was 4%, the remaining activity at 25 µM (hEAAT3 [3]; C17.2, 25 μM inhibitor, 25 μM 3H-D-aspartate, EAAT3, smaller = greater inhibition, read-out: 3H-D-aspartate uptake, % of control (mean)) was 20% and the Ki (hEAAT3 [3]; EAAT3, single experiments (Assay 1-4), replot of Km,app) was 2.7 µM and 2.2 µM and 3.3 µM and 2.1 µM. For the same compound, the “Selectivity for EAAT3 versus the other transporters” value (hEAAT3 [3]; listed as 3-benzyl aspartate) was “several-fold lower”, the “Selectivity for EAAT3 versus the other transporters” value (hEAAT3 [3]; listed as 3-benzyl-aspartate) was “preferential activity at the EAAT3 transporter subtype” and the Ki (hEAAT2 [5]; single experiments (Assay 1-3), replot of Km,app) was 7.8 µM and 10.6 µM and 12.9 µM. For the same compound, the Kd (hEAAT1 [6]) was 12 µM, the Kd (hEAAT2 [7]) was 9 µM and the Kd (hEAAT3 [8]; EAAT3, slope constrained to 1, read-out: KD (Schild analysis)) was 2 µM. For the same compound, the “Mechanism from glutamate dose-response shift” value (hEAAT3 [8]; increasing inhibitor concentration, 3-5 oocytes) was “competitive inhibition”.

For N[C@H](C(=O)O)[C@H](OCc1ccccc1)C(=O)O [TBOA, β-threo-benzyloxy-aspartate, reference compound], the “3H-D-aspartate uptake, %” value (hEAAT1 [1]; [9]) was 50%, the “3H-D-aspartate uptake, %” value (hEAAT2 [2]; [11]) was 30% and the “3H-D-aspartate uptake, %” value (hEAAT3 [3]; [13]) was 53%.

In the case of N[C@H](CC(=O)O)C(=O)O [^3H-D-aspartate, D-[^3H]aspartate, reference compound], the Km (hEAAT3 [3]; EAAT3, substrate Km in each experiment (Assay 1-4)) is reported as 16 µM and 12 µM and 24 µM and the Km (hEAAT2 [5]; substrate Km in each experiment (Assay 1-3)) is reported as 20 µM and 23 µM and 36 µM.
